Earlier results in US11648199B2 (AI Therapeutics, Inc, priority 2014, dated 2023).

Tests used:
[1] = cancer patients administered temsirolimus or everolimus; cited from earlier work
[2] = clinical use; cited from earlier work

| Structure (SMILES) | patients who may experience mild grade pulmonary toxicity [1] [%] | lung toxicity [2] |
| --- | --- | --- |
| CO[C@H]1C[C@@H]2CC[C@@H](C)[C@@](O)(O2)C(=O)C(=O)N2CCCC[C@H]2C(=O)O[C@H]([C@H](C)C[C@@H]2CC[C@@H](OCCO)[C@H](OC)C2)CC(=O)[C@H](C)/C=C(\C)[C@@H](O)[C@@H](OC)C(=O)[C@H](C)C[C@H](C)/C=C/C=C/C=C/1C [everolimus] | 10 | – |
| C=CC[C@@H]1/C=C(\C)C[C@H](C)C[C@H](OC)[C@H]2O[C@@](O)(C(=O)C(=O)N3CCCC[C@H]3C(=O)O[C@H](/C(C)=C/[C@@H]3CC[C@@H](O)[C@H](OC)C3)[C@H](C)[C@@H](O)CC1=O)[C@H](C)C[C@@H]2OC [tacrolimus] | – | did not show lung toxicity |
| CO[C@H]1C[C@@H]2CC[C@@H](C)[C@@](O)(O2)C(=O)C(=O)N2CCCC[C@H]2C(=O)O[C@H]([C@H](C)C[C@@H]2CC[C@@H](OC(=O)C(C)(CO)CO)[C@H](OC)C2)CC(=O)[C@H](C)/C=C(\C)[C@@H](O)[C@@H](OC)C(=O)[C@H](C)C[C@H](C)/C=C/C=C/C=C/1C [temsirolimus] | 10 | – |
